Measured values reported in patent US9927424B2, “Assays for identifying compounds that modulate bitter taste” (Chromocell Corporation, priority 2013, dated 2018).

Tests used:
TAS2R4 [1] = target: T1, TAS2R4 (Homo sapiens, UniProt Q9NYW5); assay: Calcium fluorescence functional assay, TAS2R4 cell line with mouse Gα15; format: cell-based; settings: 20 mM tastant; change in intracellular calcium
T1 construct: expressed in transfected cells
T1 sequence (Q9NYW5 1-299): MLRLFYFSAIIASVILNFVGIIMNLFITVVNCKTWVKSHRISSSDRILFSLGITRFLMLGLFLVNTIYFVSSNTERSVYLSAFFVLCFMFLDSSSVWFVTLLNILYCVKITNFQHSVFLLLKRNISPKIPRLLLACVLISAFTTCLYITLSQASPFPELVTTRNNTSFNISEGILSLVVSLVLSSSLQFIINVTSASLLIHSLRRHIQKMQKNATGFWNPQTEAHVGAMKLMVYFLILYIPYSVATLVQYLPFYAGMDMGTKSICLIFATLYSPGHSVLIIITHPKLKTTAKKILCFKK
Experimental: (§1) A panel of cell lines expressing eight specific bitter taste receptors, a subset of the panel of twenty-five bitter receptors described in International Patent Application Publication WO 2010/088633 (see, e.g., Example 26), was used for the purpose of these analyses. Accordingly, each cell line of the panel expressed a human bitter taste receptor and mouse Gα15 signaling protein.
(§2) Each of the Examples below utilized the following functional assay: • Day 1: Stable cell lines were seeded onto black wall/clear bottom 96-well, plates (e.g., Corning, 3904). Approximately 40K cells were added per well and incubated at 37° C., 5% CO2 overnight in cell growth media (DMEM (Sigma, D5796) supplemented with 10% Fetal Bovine Serum (Sigma, 5178), 2 mM Glutamine (Sigma, G7513)). • Day 2: Growth media was discarded and cells were incubated at 37° C., 5% CO2 for 60 minutes in 100 ul of load solution containing 1× Ca-3 dye (Molecular Devices, R8090), 1% DMSO in buffer containing 130 mM NaCl, 2 mM CaCl2, 5 mM KCl, 1.2 mM MgCl2, 10 mM HEPES and 10 mM Glucose (pH 7.0). Probenecid was not included in the load solution. • Functional assay: After dye loading, cell plates were placed in a fluorescent plate reader (e.g., FDSS6000 (Hamamatsu, Japan)) and receptor stimulation was measured by adding 50 ul of 3× concentrated ligand/agonist stock. Fluorescence was monitored continuously for 10 s before agonist addition and for 100-250 s after stimulation with agonist.
(§3) Receptor Activation is defined as follows: • % Activation=[((Maximum signal fluorescence−Minimum signal fluorescence)−(Maximum control fluorescence−Minimum control fluorescence))/(Maximum buffer fluorescence−Minimum buffer fluorescence)]*100 • Functional Response=[(Maximum signal fluorescence−Minimum signal fluorescence)−(Maximum control fluorescence−Minimum control fluorescence)] • Signal fluorescence: refers to the change in fluorescence seen with addition of ligand • Control fluorescence: refers to the change in fluorescence seen with addition of buffer (negative control) • Calcium signals from ligand and control were normalized to the basal fluorescence of the cells prior to the stimulation.
(§4) A concentration analysis was performed and EC50 values were calculated by nonlinear regression using the formula: Y=Bottom+(Top−Bottom)/(1+10^((Log EC50−X)*Hill Slope)), X=log of dose or concentration, Y=Response (increasing as X increases), Top=maximum signal, Bottom=minimum signal. EC50 (half maximal effective concentration) refers to the molar concentration of the agonist which produces 50% of the maximum possible effective response from that agonist.

TAS2R9 [2] = target: T2, TAS2R9 (Homo sapiens, UniProt Q9NYW1); assay: Calcium fluorescence functional assay, TAS2R9 cell line with mouse Gα15; format: cell-based; settings: 20 mM tastant; change in intracellular calcium
T2 construct: expressed in transfected cells
T2 sequence (Q9NYW1 1-312): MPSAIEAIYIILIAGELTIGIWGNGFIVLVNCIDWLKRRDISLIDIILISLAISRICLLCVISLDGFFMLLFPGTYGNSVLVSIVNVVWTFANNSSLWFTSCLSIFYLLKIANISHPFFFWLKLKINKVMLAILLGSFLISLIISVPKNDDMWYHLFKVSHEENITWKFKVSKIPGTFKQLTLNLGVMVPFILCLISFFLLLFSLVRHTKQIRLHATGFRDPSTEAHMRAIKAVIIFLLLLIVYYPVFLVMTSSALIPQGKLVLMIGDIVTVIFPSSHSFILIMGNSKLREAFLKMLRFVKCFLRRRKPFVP
Experimental: as §1, §2, §3, §4

TAS2R13 [3] = target: T3, TAS2R13 (Homo sapiens, UniProt Q9NYV9); assay: Calcium fluorescence functional assay, TAS2R13 cell line with mouse Gα15; format: cell-based; settings: 20 mM tastant; change in intracellular calcium
T3 construct: expressed in transfected cells
T3 sequence (Q9NYV9 1-303): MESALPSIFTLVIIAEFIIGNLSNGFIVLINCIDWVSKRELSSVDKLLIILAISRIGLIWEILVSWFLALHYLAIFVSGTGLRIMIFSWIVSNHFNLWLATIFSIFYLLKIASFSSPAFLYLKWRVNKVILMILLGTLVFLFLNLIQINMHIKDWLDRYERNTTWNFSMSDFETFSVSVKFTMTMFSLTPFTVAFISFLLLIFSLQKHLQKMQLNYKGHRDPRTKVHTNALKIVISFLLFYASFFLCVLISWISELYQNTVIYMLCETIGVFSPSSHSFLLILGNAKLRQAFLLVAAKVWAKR
Experimental: as §1, §2, §3, §4

TAS2R14 [4] = target: T4, TAS2R14 (Homo sapiens, UniProt Q9NYV8); assay: Calcium fluorescence functional assay, TAS2R14 cell line with mouse Gα15; format: cell-based; settings: 20 mM tastant; change in intracellular calcium
T4 construct: expressed in transfected cells
T4 sequence (Q9NYV8 1-317): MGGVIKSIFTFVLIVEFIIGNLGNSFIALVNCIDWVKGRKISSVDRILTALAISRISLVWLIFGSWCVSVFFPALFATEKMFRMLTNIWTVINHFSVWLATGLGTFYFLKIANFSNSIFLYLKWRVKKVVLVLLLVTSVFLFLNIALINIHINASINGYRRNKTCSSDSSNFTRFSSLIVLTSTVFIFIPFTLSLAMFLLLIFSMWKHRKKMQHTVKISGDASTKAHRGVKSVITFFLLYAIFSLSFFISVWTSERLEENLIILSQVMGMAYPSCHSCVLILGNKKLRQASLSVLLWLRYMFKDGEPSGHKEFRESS
Experimental: as §1, §2, §3, §4

TAS2R44 [5] = target: T5, TAS2R44 (Homo sapiens, UniProt P59538); assay: Calcium fluorescence functional assay, TAS2R44 cell line with mouse Gα15; format: cell-based; settings: 20 mM tastant; change in intracellular calcium
T5 construct: expressed in transfected cells
T5 sequence (P59538 1-309): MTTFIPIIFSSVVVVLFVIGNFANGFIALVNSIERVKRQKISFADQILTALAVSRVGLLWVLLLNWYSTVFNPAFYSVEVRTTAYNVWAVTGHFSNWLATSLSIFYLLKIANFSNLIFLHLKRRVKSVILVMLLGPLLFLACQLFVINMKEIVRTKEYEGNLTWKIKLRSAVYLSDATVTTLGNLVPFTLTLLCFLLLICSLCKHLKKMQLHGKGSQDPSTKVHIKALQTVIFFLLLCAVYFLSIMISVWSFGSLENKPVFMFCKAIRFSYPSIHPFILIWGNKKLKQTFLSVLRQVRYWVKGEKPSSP
Experimental: as §1, §2, §3, §4

TAS2R38 (PAV) = target: T6, TAS2R38 (PAV) (Homo sapiens, UniProt P59533, A49P/I296V); assay: Calcium fluorescence functional assay, TAS2R38 (PAV) cell line with mouse Gα15; format: cell-based
T6 construct: expressed in transfected cells
T6 sequence (P59533 1-333 A49P/I296V): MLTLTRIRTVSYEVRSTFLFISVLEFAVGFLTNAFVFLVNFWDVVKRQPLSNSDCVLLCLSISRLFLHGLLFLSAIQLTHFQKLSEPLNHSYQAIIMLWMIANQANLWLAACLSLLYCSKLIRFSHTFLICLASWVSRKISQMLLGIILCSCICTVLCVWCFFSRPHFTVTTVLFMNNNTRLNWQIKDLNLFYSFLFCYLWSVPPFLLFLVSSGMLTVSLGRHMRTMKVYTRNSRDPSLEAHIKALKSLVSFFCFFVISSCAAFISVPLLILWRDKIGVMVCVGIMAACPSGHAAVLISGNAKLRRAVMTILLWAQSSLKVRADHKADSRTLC
Experimental: as §1, §2, §3, §4

TAS2R39 = target: T7, TAS2R39 (Homo sapiens, UniProt P59534); assay: Calcium fluorescence functional assay, TAS2R39 cell line with mouse Gα15; format: cell-based
T7 construct: expressed in transfected cells
T7 sequence (P59534 1-338): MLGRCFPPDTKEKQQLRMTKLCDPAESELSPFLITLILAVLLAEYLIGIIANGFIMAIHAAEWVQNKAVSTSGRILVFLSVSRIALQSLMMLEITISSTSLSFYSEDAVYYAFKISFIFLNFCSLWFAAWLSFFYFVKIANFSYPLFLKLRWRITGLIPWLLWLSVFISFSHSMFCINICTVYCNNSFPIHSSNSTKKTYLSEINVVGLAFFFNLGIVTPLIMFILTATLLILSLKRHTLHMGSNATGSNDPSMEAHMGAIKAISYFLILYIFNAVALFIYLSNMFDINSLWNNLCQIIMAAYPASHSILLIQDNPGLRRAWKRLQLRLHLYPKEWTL
Experimental: as §1, §2, §3, §4

TAS2R4 [6] = target: T1, TAS2R4; settings: PCT/US12/61400; cited from earlier work
TAS2R9 [7] = target: T2, TAS2R9; settings: PCT/US12/61400; cited from earlier work
TAS2R13 [8] = target: T3, TAS2R13; settings: PCT/US12/61400; cited from earlier work
TAS2R14 [9] = target: T4, TAS2R14; settings: PCT/US12/61400; cited from earlier work
TAS2R44 [10] = target: T5, TAS2R44; settings: PCT/US12/61400; cited from earlier work
TAS2R1 = TAS2R1 (Homo sapiens, UniProt Q9NYW7); settings: PCT/US12/61400; cited from earlier work
Chain of TAS2R1 (Q9NYW7 whole entry): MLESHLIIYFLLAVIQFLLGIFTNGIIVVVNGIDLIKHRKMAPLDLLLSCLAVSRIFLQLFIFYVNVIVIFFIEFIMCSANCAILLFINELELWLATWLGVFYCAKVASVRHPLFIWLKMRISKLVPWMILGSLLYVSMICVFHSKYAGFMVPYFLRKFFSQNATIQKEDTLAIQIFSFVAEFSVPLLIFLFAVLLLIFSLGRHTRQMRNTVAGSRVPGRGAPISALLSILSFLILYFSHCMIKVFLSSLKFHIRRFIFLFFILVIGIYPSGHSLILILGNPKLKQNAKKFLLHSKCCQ

TAS2R16 = TAS2R16 (Homo sapiens, UniProt Q9NYV7); settings: PCT/US12/61400; cited from earlier work
Chain of TAS2R16 (Q9NYV7 whole entry): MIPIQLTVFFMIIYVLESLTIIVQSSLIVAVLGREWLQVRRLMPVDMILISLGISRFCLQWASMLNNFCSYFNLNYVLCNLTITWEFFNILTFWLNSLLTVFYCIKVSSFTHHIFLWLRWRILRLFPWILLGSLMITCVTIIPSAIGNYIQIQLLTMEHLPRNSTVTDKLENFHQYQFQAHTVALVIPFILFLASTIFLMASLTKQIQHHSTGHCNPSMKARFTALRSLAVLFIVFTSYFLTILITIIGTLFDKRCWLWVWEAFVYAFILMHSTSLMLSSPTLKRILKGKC

[11] = 20 mM tastant, change in intracellular calcium
[12] = approximately, increasing concentrations of tastant

| TAS2R38 (PAV) bitter receptor activity (functional response) (TAS2R38 (PAV); [11]) | EC50 (TAS2R38 (PAV); [12]) | TAS2R39 bitter receptor activity (functional response) (TAS2R39; [11]) | EC50 (TAS2R39; [12]) | Structure (SMILES) | TAS2R4 bitter receptor activity (functional response) (TAS2R4 [1]) | TAS2R9 bitter receptor activity (functional response) (TAS2R9 [2]) | TAS2R13 bitter receptor activity (functional response) (TAS2R13 [3]) | TAS2R14 bitter receptor activity (functional response) (TAS2R14 [4]) | TAS2R44 bitter receptor activity (functional response) (TAS2R44 [5]) | TAS2R4 response to stimulation, previously shown (TAS2R4 [6]) | TAS2R9 response to stimulation, previously shown (TAS2R9 [7]) | TAS2R13 response to stimulation, previously shown (TAS2R13 [8]) | TAS2R14 response to stimulation, previously shown (TAS2R14 [9]) | TAS2R44 response to stimulation, previously shown (TAS2R44 [10]) | TAS2R1 response to stimulation, previously shown (TAS2R1) | TAS2R16 response to stimulation, previously shown (TAS2R16) |
| --- | --- | --- | --- | --- | --- | --- | --- | --- | --- | --- | --- | --- | --- | --- | --- | --- |
| – | – | – | – | CC(O)C(=O)[O-].[K+] (stereo not shown) [potassium lactate] | activate | activate | activate | activate | activate | – | – | – | – | – | – | – |
| strongly and specifically responded | 5 to 10 mM | strongly and specifically responded | 5 to 10 mM | CC1=CC(=O)NS(=O)(=O)O1 [Acesulfame K] | – | – | – | – | – | specifically respond | specifically respond | specifically respond | specifically respond | specifically respond | specifically respond | specifically respond |
